The IC50 is the midpoint of a concentration-inhibition curve. Low values mean greater potency, high ones weaker potency.

The experiment deals with T1, human type 1 glycine transporter (GlyT1) (Homo sapiens, UniProt P48067).
T1 construct: T98G cells (glioma cells) expressing human type 1 glycine transporter (GlyT1) were used
T1 sequence (P48067 1-706): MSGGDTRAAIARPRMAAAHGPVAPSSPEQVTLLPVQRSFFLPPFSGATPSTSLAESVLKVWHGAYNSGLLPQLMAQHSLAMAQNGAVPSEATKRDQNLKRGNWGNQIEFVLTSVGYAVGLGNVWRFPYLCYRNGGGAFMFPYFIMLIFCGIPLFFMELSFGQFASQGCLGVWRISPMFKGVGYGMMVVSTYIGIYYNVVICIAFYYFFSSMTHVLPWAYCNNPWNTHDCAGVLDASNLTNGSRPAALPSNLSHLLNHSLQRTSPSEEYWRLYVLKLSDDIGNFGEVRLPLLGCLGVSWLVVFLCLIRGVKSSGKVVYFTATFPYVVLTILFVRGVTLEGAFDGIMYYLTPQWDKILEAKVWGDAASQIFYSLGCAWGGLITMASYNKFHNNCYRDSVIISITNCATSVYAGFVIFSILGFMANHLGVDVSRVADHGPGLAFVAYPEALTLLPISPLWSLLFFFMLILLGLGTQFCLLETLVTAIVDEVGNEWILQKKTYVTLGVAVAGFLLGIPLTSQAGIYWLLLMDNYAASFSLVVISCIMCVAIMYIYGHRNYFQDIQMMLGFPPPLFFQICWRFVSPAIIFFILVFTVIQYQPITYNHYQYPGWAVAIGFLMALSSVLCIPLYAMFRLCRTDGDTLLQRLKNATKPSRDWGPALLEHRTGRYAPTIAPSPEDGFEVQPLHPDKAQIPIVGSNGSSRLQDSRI
Description: Glycine uptake inhibition experiment ([3H]glycine uptake). The settings on record: GlyT1. It is filed as cell-based. How it is done:
Glycine Uptake Inhibition Experiment
A glycine uptake experiment was conducted in accordance with the method published in Neuron, 8, 927-935, 1992. In the experiment, T98G cells (glioma cells) expressing human type 1 glycine transporter (GlyT1) were used. The T98G cells were seeded in a 96-well plate at 2.0×10^4 cells/well and cultured overnight in a CO2 incubator. The test substance was dissolved in a 100% DMSO solution and then dissolved in a 10 mM HEPES buffer solution (pH 7.4) containing 150 mM sodium chloride, 1 mM calcium chloride, 5 mM potassium chloride, 1 mM magnesium chloride, 10 mM glucose and 0.2% bovine serum albumin. After removing the cell culture medium, the test substance was subjected to a 10-min pretreatment. Subsequently, the test substance and [^3H] glycine (final concentration: 250 nM) were added to the cells and reaction was performed at room temperature for 15 minutes. After the end of the reaction, the extracellular fluid was aspirated with a manifold to remove excess labeled glycine present outside the cells, and then the cells were lysed with a 0.5 M aqueous sodium hydroxide solution. The glycine content in the cells was determined by measuring the radioactivity in the cell lysate with a liquid scintillation counter. Glycine uptake in the presence of 10 μM ALX5407 was defined as non-specific uptake, and the value calculated by subtracting the amount of the non-specific uptake from the total uptake in the absence of 10 μM ALX5407 was defined as specific uptake. In addition, glycine uptake inhibitory activity (IC50 value) was calculated from an inhibition curve at the concentrations of each test substance ranging from 10^−9 to 10^−5 M. It should be noted that ALX5407 is an HCl salt of N-[(3R)-3-([1,1′-biphenyl]-4-yloxy)-3-(4-fluorophenyl)propyl]-N-methylglycine.
In turn, `O=C(NC(c1cccc(-c2cnn(CC(F)(F)F)c2)c1)C1(O)CCC(F)(F)CC1)c1nccc(C(F)(F)F)c1Cl` (single isomer, unassigned) [Compound 135, 3-chloro-N-[(4,4-difluoro-1-hydroxycyclohexyl){3-[1-(2,2,2-trifluoroethyl)-1H-pyrazol-4-yl]phenyl}methyl]-4-(trifluoromethyl)pyridine-2-carboxamide] yielded an IC50 of 72 nM.

`O=C(NC(c1cccc(Cl)c1Cl)C1(O)CCC(F)(F)CC1)c1nccc(C(F)(F)F)c1Cl` (single isomer, unassigned) [Compound 136, 3-chloro-N-[(2,3-dichlorophenyl)(4,4-difluoro-1-hydroxycyclohexyl)methyl]-4-(trifluoromethyl)pyridine-2-carboxamide] yielded an IC50 of 3700 nM.

Compound `O=C(NC(c1cccc(Cl)c1Cl)C1(O)CCC(F)(F)CC1)c1nccc(C(F)(F)F)c1Cl` (single isomer, unassigned) [Compound 137, 3-chloro-N-[(2,3-dichlorophenyl)(4,4-difluoro-1-hydroxycyclohexyl)methyl]-4-(trifluoromethyl)pyridine-2-carboxamide] came in with an IC50 of 62 nM.

With `CCn1cc(-c2cccc(C(NC(=O)c3cccc(Cl)c3Cl)C3(O)CCC(F)(F)CC3)c2)cn1` (single isomer, unassigned) [Compound 144, 2,3-dichloro-N-{(4,4-difluoro-1-hydroxycyclohexyl)[3-(1-ethyl-1H-pyrazol-4-yl)phenyl]methyl}benzamide], the IC50 is 530 nM.

The compound `CCn1cc(-c2cccc(C(NC(=O)c3cccc(Cl)c3Cl)C3(O)CCC(F)(F)CC3)c2)cn1` (single isomer, unassigned) [Compound 145, 2,3-dichloro-N-{(4,4-difluoro-1-hydroxycyclohexyl)[3-(1-ethyl-1H-pyrazol-4-yl)phenyl]methyl}benzamide] yielded a 50% inhibitory concentration (IC50) of 670 nM.

Compound `O=C(NC(c1ccccc1Cl)C1(O)CCC(F)(F)CC1)c1nccc(C(F)(F)F)c1Cl` (single isomer, unassigned) [Compound 147, 3-chloro-N-[(2-chlorophenyl)(4,4-difluoro-1-hydroxycyclohexyl)methyl]-4-(trifluoromethyl)pyridine-2-carboxamide] came in with an IC50 of 110 nM.

Compound `CCn1cc(-c2cccc(C(NC(=O)c3cccc(C(F)(F)F)c3C)C3(O)CCC(F)(F)CC3)c2)cn1` (single isomer, unassigned) [Compound 149, N-{(4,4-difluoro-1-hydroxycyclohexyl)[3-(1-ethyl-1H-pyrazol-4-yl)phenyl]methyl}-2-methyl-3-(trifluoromethyl)benzamide] registered an IC50 of 2600 nM.

Take `CCn1cc(-c2cccc(C(NC(=O)c3cccc(C(F)(F)F)c3C)C3(O)CCC(F)(F)CC3)c2)cn1` (single isomer, unassigned) [Compound 150, N-{(4,4-difluoro-1-hydroxycyclohexyl)[3-(1-ethyl-1H-pyrazol-4-yl)phenyl]methyl}-2-methyl-3-(trifluoromethyl)benzamide]: inhibition was half-maximal at 840 nM (IC50).

Consider `CCn1cc(-c2cccc(C(NC(=O)c3cccc(C)c3Cl)C3(O)CCC(F)(F)CC3)c2)cn1` (single isomer, unassigned) [Compound 151, 2-chloro-N-{(4,4-difluoro-1-hydroxycyclohexyl)[3-(1-ethyl-1H-pyrazol-4-yl)phenyl]methyl}-3-methylbenzamide], for which 3300 nM corresponded to half-maximal inhibition (IC50).

Compound `CCn1cc(-c2cccc(C(NC(=O)c3cccc(C)c3Cl)C3(O)CCC(F)(F)CC3)c2)cn1` (single isomer, unassigned) [Compound 152, 2-chloro-N-{(4,4-difluoro-1-hydroxycyclohexyl)[3-(1-ethyl-1H-pyrazol-4-yl)phenyl]methyl}-3-methylbenzamide] showed an IC50 of 1300 nM.

For the compound `O=C(NC(c1ccccc1Cl)C1(O)CCC(F)(F)CC1)c1ccnc(C(F)(F)F)c1Cl` (single isomer, unassigned) [Compound 155, 3-chloro-N-[(2-chlorophenyl)(4,4-difluoro-1-hydroxycyclohexyl)methyl]-2-(trifluoromethyl)pyridine-4-carboxamide], the IC50 was found to be 170 nM.

`O=C(NC(c1ccccc1Cl)C1(O)CCC(F)(F)CC1)c1nccc(C(F)(F)F)c1Cl` (single isomer, unassigned) [Compound 156, 3-chloro-N-[(2-chlorophenyl)(4,4-difluoro-1-hydroxycyclohexyl)methyl]-4-(trifluoromethyl)pyridine-2-carboxamide] registered an IC50 of 1800 nM.

Compound `O=C(NC(c1cccc(F)c1F)C1(O)CCC(F)(F)CC1)c1nccc(C(F)(F)F)c1Cl` (single isomer, unassigned) [Compound 164, 3-chloro-N-[(4,4-difluoro-1-hydroxycyclohexyl)(2,3-difluorophenyl)methyl]-4-(trifluoromethyl)pyridine-2-carboxamide] displayed a half-maximal inhibitory concentration (IC50) of 120 nM.

Consider `O=C(NC(c1cccc(F)c1F)C1(O)CCC(F)(F)CC1)c1ccnc(C(F)(F)F)c1Cl` (single isomer, unassigned) [Compound 165, 3-chloro-N-[(4,4-difluoro-1-hydroxycyclohexyl)(2,3-difluorophenyl)methyl]-2-(trifluromethyl)pyridine-4-carboxamide], for which the IC50 came to 210 nM.

As to `O=C(NC(c1cccc(Cl)c1)C1(O)CCC(F)(F)CC1)c1nccc(C(F)(F)F)c1Cl` (single isomer, unassigned) [Compound 166, 3-chloro-N-[(3-chlorophenyl)(4,4-difluoro-1-hydroxycyclohexyl)methyl]-4-(trifluoromethyl)pyridine-2-carboxamide], the IC50 was determined as 180 nM.

As for `O=C(NC(c1cccc(Cl)c1)C1(O)CCC(F)(F)CC1)c1ccnc(C(F)(F)F)c1Cl` (single isomer, unassigned) [Compound 167, 3-chloro-N-[(3-chlorophenyl)(4,4-difluoro-1-hydroxycyclohexyl)methyl]-2-(trifluoromethyl)pyridine-4-carboxamide], the IC50 is 210 nM.

As to `O=C(NC(c1cccc(Cl)c1F)C1(O)CCC(F)(F)CC1)c1nccc(C(F)(F)F)c1Cl` (single isomer, unassigned) [Compound 168, 3-chloro-N-[(3-chloro-2-fluorophenyl)(4,4-difluoro-1-hydroxycyclohexyl)methyl]-4-(trifluoromethyl)pyridine-2-carboxamide], the IC50 was found to be 57 nM.

`O=C(NC(c1cccc(Cl)c1F)C1(O)CCC(F)(F)CC1)c1ccnc(C(F)(F)F)c1Cl` (single isomer, unassigned) [Compound 169, 3-chloro-N-[(3-chloro-2-fluorophenyl)(4,4-difluoro-1-hydroxycyclohexyl)methyl]-2-(trifluoromethyl)pyridine-4-carboxamide] displayed an IC50 of 95 nM.

In turn, `O=C(NC(c1cccc(F)c1Cl)C1(O)CCC(F)(F)CC1)c1nccc(C(F)(F)F)c1Cl` (single isomer, unassigned) [Compound 177, 3-chloro-N-[(2-chloro-3-fluorophenyl)(4,4-difluoro-1-hydroxycyclohexyl)methyl]-4-(trifluoromethyl)pyridine-2-carboxamide] had an IC50 of 100 nM.

On to `O=C(NC(c1cccc(F)c1Cl)C1(O)CCC(F)(F)CC1)c1ccnc(C(F)(F)F)c1Cl` (single isomer, unassigned) [Compound 178, 3-chloro-N-[(2-chloro-3-fluorophenyl)(4,4-difluoro-1-hydroxycyclohexyl)methyl]-2-(trifluoromethyl)pyridine-4-carboxamide], for which the IC50 amounted to 130 nM.

`O=C(NC(c1cccc(Cl)c1)C1(O)CCCC1)c1ccnc(C(F)(F)F)c1Cl` (single isomer, unassigned) [Compound 185, 3-chloro-N-[(3-chlorophenyl)(1-hydroxycyclopentyl)methyl]-2-(trifluoromethyl)pyridine-4-carboxamide] gave an IC50 of 140 nM.

(Values after patent US20160130278A1 (TAISHO PHARMACEUTICAL CO., LTD, priority 2013, published 2016).)
